Article PMC3435281 (PLoS ONE, 2012)
pEC50: −log10 of the molar value.

What was measured:
C57BL/6J splenocytes = test: CYP1A1, CYP1B1 and IDO mRNA in C57BL/6J splenocytes; assay type: cell-based, mouse; conditions: 4 hours
Description: An important role for the AHR in the immune system, and specifically T-cell differentiation, has been recognized and continues to be characterized in the literature, [7]. Some ligands of the AHR have the ability to enhance Treg differentiation from naïve T-cells (TCDD, kynurenine), while others direct differentiation towards Th17 effector cells (FICZ). […] IDO has long been known to play a role in Treg generation, and may be central to the mechanism of Dendritic Cell (DC)-directed Treg generation. […] As described in the Methods, naïve T-cells were sorted using magnetic bead separation, and placed in culture for 5 days with allogeneic pDCs separated from BALB/C mice. […] After 5 days, cells were collected and mRNA harvested for qPCR analysis of IDO and FoxP3. […] Naïve T cells were placed in culture with IL-6 and TGF-β, and harvested after 3 days of culture.
A. Spleens were harvested from mice and processed in the standard fashion. […] Same assay as A, but mRNA for CYP1B1 and IDO were measured. C.

[1] = biological target: wild-type AHR (pTarget-mAHR) (Mus musculus, UniProt P30561); test: DRE-luciferase in COS-1 cells transfected with wild-type mAHR
Experimental: Figure 4 Splenocytes from wild-type and AHR^d mice analyzed by qPCR for CYP1A1. […] After 4 hours they were analyzed by qPCR for CYP1A1 analysis. The curves are normalized from 0 to 100% response. […] Cos-1 cells were transfected with an AHR containing the same point mutation (valine for alanine) thought to be responsible for the low affinity of the AHR^d isoform compared to AHR^b, and compared to the wild-type AHR response. These cells also harbor a luciferase gene next to the DRE. C. Cos-1 cells were exposed to TCDD. […] The graphs represent normalized data from 0 response to 100% response. They are representative of 2 independent experiments.
These cells also harbor a luciferase gene next to the DRE. […] The data in this figure is normalized from 0 to 100% response.
After 4 hours of treatment, cells were assayed with dual luciferase® reporter assay system (Promega, Madison, WI). The expressed luciferase activity was measured by MicroLumat Plus luminometer (Berthold Technologies, Hartfordshire, UK).

AHR^d = tested on: AHR^d; design: method as in PMID 16242735; conditions: cited from earlier work
rat AHR^b (5L) = biological target: T1, rat AHR^b (5L) (Rattus norvegicus, UniProt P41738); test: EROD activity in rat hepatoma 5L cells; assay type: cell-based; conditions: 5L versus AHR^d-15 cells, 40 hours
T1 construct: endogenous in cells; host or cells: rat hepatoma 5L cells
Experimental: We utilized the wild type rat hepatoma cell line, 5L, which harbors the high affinity AHR isoform, and our newly created AHR^d-15 cell line. […] Groups of control mice were given corn oil alone or BNF at the concentration of 120 mg/kg.
Figure 3 In Vitro dose response curves. A. Rat hepatoma cell lines bearing the murine AHR^d (AHR^d-15) or the rat AHR^b (5L) were incubated with increasing doses of TCDD in 96-well plates. After 40 hours, EROD activity was performed from whole cell lysate. (n = 3). […] (n = 3). C. Same assay as in A, with increasing doses of BNF. (n = 2). […] Following 48 hours, hepatic microsomal proteins were isolated and used for the assessment of EROD activity. Animals were treated in groups of 4. Error bars: S.D.
High-throughput analysis of EROD activity was assayed by adapting a protocol that was described elsewhere, [63]. Briefly, cells were seeded into 96-well plates at ∼ 60% density and treated with the test compounds for 36 hours. The cells were washed with PBS and lysed with 30 µL water and a cycle of freeze-thaw. To each well, 150 µL of 50 mM Hepes buffer containing 26.7 µM dicumarol and 13.3 µM ethoxyresorufin were added. The samples were incubated at 30°C for 20 minutes, and 50 µL of 0.5 mM β-NADPH were added to initiate the reaction. Fluorescence of the resorufin product was detected using the 544 nm excitation and 590 nm emission wavelength filter set.

Chain of wild-type AHR (pTarget-mAHR) (P30561 10-848): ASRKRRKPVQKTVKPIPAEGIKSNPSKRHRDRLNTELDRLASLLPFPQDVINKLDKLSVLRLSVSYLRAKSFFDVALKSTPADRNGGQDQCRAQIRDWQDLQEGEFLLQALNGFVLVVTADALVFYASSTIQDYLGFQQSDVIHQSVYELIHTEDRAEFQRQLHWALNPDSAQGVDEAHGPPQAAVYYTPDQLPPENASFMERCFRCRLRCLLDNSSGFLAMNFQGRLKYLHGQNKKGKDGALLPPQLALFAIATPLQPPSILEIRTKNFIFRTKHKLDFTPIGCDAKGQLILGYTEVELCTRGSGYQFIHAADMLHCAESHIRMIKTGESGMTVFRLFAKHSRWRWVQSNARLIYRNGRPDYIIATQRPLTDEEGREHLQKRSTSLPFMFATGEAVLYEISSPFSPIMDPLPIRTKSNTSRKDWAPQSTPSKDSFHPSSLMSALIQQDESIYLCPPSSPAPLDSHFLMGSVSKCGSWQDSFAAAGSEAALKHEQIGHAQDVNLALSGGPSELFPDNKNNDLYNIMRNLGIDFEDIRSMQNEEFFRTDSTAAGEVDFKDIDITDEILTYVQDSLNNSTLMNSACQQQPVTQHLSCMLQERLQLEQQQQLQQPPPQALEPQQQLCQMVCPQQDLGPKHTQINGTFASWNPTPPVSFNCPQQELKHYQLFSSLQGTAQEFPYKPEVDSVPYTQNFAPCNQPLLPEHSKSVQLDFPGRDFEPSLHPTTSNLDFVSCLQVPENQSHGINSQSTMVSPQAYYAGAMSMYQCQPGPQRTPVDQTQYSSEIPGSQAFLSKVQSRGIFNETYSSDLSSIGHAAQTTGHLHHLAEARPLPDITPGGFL
T1 sequence (P41738 10-853): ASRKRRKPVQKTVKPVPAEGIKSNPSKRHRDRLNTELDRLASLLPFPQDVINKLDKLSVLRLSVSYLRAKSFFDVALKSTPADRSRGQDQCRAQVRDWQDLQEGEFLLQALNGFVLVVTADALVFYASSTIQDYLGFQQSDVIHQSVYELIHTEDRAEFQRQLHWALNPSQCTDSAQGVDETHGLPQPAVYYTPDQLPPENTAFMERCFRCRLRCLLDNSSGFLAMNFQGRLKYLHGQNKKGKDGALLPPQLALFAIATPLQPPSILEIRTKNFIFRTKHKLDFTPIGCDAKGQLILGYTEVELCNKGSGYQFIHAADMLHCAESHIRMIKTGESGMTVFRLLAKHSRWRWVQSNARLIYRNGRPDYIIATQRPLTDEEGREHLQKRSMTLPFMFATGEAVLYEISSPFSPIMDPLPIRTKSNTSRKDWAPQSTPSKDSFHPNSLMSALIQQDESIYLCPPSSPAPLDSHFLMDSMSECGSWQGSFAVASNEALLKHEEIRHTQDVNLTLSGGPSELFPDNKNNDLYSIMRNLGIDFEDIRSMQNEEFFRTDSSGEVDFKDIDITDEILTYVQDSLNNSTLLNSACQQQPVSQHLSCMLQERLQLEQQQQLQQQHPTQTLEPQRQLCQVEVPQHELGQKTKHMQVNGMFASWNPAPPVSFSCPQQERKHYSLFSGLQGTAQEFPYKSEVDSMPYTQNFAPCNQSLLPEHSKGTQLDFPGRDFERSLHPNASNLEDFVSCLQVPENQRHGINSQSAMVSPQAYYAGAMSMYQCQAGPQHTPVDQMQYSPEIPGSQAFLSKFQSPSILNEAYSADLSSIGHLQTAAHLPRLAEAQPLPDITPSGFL

## Cc1cc(C)c(C=C2C(=O)Nc3ccccc32)[nH]1 [SU5416, 3-(3,5-dimethyl-1H-pyrrol-2-ylmethylene)-1,3-dihydro-indole-2-one]
C57BL/6J splenocytes; titrating doses
  induction of CYP1A1 and CYP1B1 mRNA: dramatically induced
  induction of IDO mRNA: induced significant amounts of IDO mRNA
C57BL/6J splenocytes; wild-type cells, SU5416 500 nM
  CYP1A1 mRNA induction: induced CYP1A1 in wild-type

## Clc1cc2c(cc1Cl)Oc1cc(Cl)c(Cl)cc1O2 [TCDD, 2,3,7,8-tetrachlorodibenzo-p-dioxin]
[1]
  pEC50: 9.14
AHR^d
  binding affinity of AHR^d relative to AHR^b: one-fifteenth to one-twentieth
Rat AHR^b (5L)
  shift of EROD dose-response to the left for the AHR^b isoform: 1.5 orders of magnitude
